Laboratory results published in US7807662B2, “Platinum IV complex inhibitor” (University of South Florida, priority 2004, dated 2010).

Columns and labels:
Stat1 = biological target: T1, Stat1 (Homo sapiens, UniProt P42224); experiment: In vitro DNA-binding activity assay with EMSA, Stat1; type: biochemical; conditions: hSIE probe, pre-incubation with compound
T1 construct: nuclear extracts of equal total protein containing active Stat1, Stat3 and Stat5 were pre-incubated with different concentrations of IS3 295; endogenous in cells; host or cells: nuclear extracts
T1 sequence (P42224 2-750 limits assumed): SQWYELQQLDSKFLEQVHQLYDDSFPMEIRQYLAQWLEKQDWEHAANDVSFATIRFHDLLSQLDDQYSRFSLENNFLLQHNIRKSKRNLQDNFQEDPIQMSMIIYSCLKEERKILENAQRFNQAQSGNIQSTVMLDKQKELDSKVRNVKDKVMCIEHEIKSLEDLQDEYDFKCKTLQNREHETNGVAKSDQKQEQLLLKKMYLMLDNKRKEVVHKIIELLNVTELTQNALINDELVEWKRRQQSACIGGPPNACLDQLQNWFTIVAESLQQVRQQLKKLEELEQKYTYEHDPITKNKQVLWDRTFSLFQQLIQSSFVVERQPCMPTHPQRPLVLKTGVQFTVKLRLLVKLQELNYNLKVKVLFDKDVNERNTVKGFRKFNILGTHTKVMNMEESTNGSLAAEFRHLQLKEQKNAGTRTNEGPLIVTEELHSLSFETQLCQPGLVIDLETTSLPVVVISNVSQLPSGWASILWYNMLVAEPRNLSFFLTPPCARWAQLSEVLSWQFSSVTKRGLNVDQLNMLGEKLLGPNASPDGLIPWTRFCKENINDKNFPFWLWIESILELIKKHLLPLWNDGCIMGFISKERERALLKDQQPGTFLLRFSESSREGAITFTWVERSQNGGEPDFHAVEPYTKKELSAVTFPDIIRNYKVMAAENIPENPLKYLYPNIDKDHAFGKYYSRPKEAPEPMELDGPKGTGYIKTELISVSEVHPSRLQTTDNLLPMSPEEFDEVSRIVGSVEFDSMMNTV
Procedure: (§1) Nuclear extract preparation and gel shift assays—Nuclear extract preparation from v-Src-transformed fibroblasts (NIH3T3/v-Src) or tumor cell lines and electrophoretic mobility shift assay were carried out as previously described (11, 13, 37). The ^32P-labeled oligonucleotide probes used were hSIE (high affinity sis-inducible element, m67 variant, 5′-[…]) (SEQ ID NO:1) that bound Stat1 and Stat3 (13, 45) and MGFe (mammary gland factor element from the bovine β-casein gene promoter, 5′-AGATTTCTAGGAATTCAA) (SEQ ID NO:2) for Stat1 and Stat5 binding (46, 47). Except where indicated, inhibitor compound was pre-incubated with the nuclear extract for 30 minutes at room temperature prior to incubation with radiolabeled probe.
(§2) Compounds from the NCI diversity set were evaluated for inhibition of Stat3 signaling in in vitro DNA-binding activity assay with analysis of electrophoretic mobility shift assay (EMSA). A platinum (IV) complex, IS3 295 (NSC 295558) (FIG. 1E), was identified as potent inhibitor of Stat3, which was further characterized in a number of assays for its anti-Stat3 property. […]

Stat3 [1] = biological target: T2, Stat3 (Homo sapiens, UniProt P40763); conditions: from reference 35; cited from earlier work
T2 construct: nuclear extracts of equal total protein containing active Stat1, Stat3 and Stat5 were pre-incubated with different concentrations of IS3 295; endogenous in cells; host or cells: nuclear extracts
T2 sequence (P40763 2-770 limits assumed, species assumed): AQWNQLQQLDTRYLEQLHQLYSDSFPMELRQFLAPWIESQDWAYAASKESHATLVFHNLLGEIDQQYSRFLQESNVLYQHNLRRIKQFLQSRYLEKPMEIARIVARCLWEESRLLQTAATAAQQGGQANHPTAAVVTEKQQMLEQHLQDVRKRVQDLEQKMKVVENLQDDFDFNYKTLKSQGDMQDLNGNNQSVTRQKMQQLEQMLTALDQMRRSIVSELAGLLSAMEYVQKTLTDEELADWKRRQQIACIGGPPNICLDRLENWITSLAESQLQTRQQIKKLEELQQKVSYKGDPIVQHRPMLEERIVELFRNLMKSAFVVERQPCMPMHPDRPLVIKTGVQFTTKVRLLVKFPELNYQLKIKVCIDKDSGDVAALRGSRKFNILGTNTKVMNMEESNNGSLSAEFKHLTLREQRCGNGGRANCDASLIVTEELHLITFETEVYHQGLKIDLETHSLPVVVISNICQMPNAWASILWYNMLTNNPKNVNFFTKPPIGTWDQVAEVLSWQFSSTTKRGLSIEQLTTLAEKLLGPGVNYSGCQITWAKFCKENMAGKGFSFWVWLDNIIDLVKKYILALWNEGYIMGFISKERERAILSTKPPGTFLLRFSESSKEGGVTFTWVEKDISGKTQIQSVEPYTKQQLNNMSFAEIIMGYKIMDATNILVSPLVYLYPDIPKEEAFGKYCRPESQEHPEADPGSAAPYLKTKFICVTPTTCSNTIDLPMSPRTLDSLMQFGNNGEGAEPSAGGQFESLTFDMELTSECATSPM

E2F1 = E2F1 (Homo sapiens, UniProt Q01094); experiment: In vitro DNA-binding activity assay with EMSA, E2F1 (control); type: biochemical; conditions: DHFR promoter sequence probe
Sequence of E2F1 (Q01094 whole entry, species assumed): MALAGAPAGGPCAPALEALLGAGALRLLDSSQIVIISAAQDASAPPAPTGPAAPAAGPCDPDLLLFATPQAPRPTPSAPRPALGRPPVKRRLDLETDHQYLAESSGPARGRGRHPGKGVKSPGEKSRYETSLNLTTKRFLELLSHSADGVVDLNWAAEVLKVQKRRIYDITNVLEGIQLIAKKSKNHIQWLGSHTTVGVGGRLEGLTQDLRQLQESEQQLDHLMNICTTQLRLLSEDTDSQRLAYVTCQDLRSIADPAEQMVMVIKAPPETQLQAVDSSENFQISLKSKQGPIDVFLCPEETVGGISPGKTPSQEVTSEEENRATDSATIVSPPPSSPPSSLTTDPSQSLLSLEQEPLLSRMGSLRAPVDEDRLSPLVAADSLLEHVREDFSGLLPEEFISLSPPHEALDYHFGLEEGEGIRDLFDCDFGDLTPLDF
Source text: In control studies, the effect of IS3 295 was investigated on the DNA-binding activity of E2F1 that was unrelated to Stat proteins.

Stat3 [2] = biological target: T2, Stat3; experiment: In vitro DNA-binding activity assay with EMSA, Stat3; type: biochemical; conditions: hSIE probe, pre-incubation with compound
Procedure: as §1, §2

Stat5 = experiment: In vitro DNA-binding activity assay with EMSA, Stat5; type: biochemical; conditions: MGFe probe
Procedure: as §1, §2

N.N.[Cl][Pt][Cl] [cisplatin, reference compound]
level of DNA-binding activity of Stat1 (Stat1): no detectable effect
effect on Stat3 activity (Stat3 [1]): no effect
E2F1 DNA-binding activity (E2F1): no detectable effect
level of DNA-binding activity of Stat3 (Stat3 [2]): no detectable effect
level of DNA-binding activity of Stat5:Stat5 dimers (Stat5): no detectable effect
